Among the data in PubChem BioAssay AID328 (DTP/NCI, 2004) are T/C values, retold here.

SMILES strings stand for the structures. Several values for one entry are separate records, joined by “and”; a condition that tells them apart may be missing. Equal values may be shown once. Toxic doses and inconclusive results are not listed.

In this assay the test system is BDF1 mice, P388 leukemia ip, median survival T/C. The assay can be described thus: NCI In Vivo Anticancer Drug Screen. Data for tumor model P388 Leukemia (intraperitoneal) in B6D2F1 (BDF1) mice. The following applies: endpoint: median survival time, higher = longer survival. In short, it runs like this:
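Reported as T/C, where T is the survival measurement in dosed animals and C the same measurement in vehicle controls.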

[1] abbreviates: dose: 25.0 mg/kg/injection, schedule: Q01DX009 (ip), vehicle: saline.
Setting [2] is: dose: 50.0 mg/kg/injection, schedule: Q01DX009 (ip), vehicle: saline with Tween-80.
Setting [3] is: dose: 100.0 mg/kg/injection, schedule: Q01DX009 (ip), vehicle: saline with Tween-80.
[4] abbreviates: dose: 100.0 mg/kg/injection, schedule: Q04DX003 (ip), vehicle: saline with Tween-80.
Setting [5] is: dose: 25.0 mg/kg/injection, schedule: Q01DX009 (ip), vehicle: saline with Tween-80.
Where [6] appears, read: dose: 200.0 mg/kg/injection, schedule: Q01DX009 (ip), vehicle: saline with Tween-80.
The mark [7] stands for this setting: dose: 25.0 mg/kg/injection, schedule: Q04DX003 (ip), vehicle: Klucel (hydroxypropylcellulose) (HPC).
Where [8] appears, read: dose: 12.5 mg/kg/injection, schedule: Q01DX009 (ip), vehicle: saline with Tween-80.

For `O=c1cc[nH]c(=O)o1`, the T/C was 157 % of control (dose: 19.0 mg/kg/injection, schedule: Q01DX009 (ip), vehicle: water); 169 % of control (dose: 28.0 mg/kg/injection, schedule: Q01DX009 (ip), vehicle: water); 168 % of control (dose: 42.0 mg/kg/injection, schedule: Q01DX009 (ip), vehicle: water); 94 % of control (dose: 63.0 mg/kg/injection, schedule: Q01DX009 (ip), vehicle: water).

With `CCN(CC)C(=O)c1cccc(COc2ccc(N3C(N)=NC(N)=NC3(C)C)cc2Cl)c1`, the T/C runs as follows: (dose: 16.5 mg/kg/injection, schedule: Q01DX009 (ip), vehicle: saline) 110 % of control; under setting [1], 120 % of control; (dose: 37.5 mg/kg/injection, schedule: Q01DX009 (ip), vehicle: saline) 120 % of control.

For the molecule `O=[N+]([O-])c1cc([N+](=O)[O-])c2ccccc2c1NS(=O)(=O)c1ccc(Cl)c(Cl)c1Cl`, the T/C runs as follows: under setting [2], 104 % of control; under setting [3], 120 % of control.

Turning to `Nc1ccc(CCc2ccc(Cl)cc2S(=O)(=O)F)c(Cl)c1`, the T/C is 95 % of control (dose: 100.0 mg/kg/injection, schedule: Q01DX009 (ip), vehicle: saline) and 91 % of control (dose: 200.0 mg/kg/injection, schedule: Q01DX009 (ip), vehicle: saline).

`CCOC(=O)c1cc(CC)sc1N`: the T/C was 95 % of control under setting [4]; 108 % of control (dose: 200.0 mg/kg/injection, schedule: Q04DX003 (ip), vehicle: saline with Tween-80); 108 % of control (dose: 400.0 mg/kg/injection, schedule: Q04DX003 (ip), vehicle: saline with Tween-80).

Consider `O=C1CC(c2ccccc2)=NO1`, for which the T/C is 96 % of control under setting [5], 91 % of control under setting [2], 101 % of control under setting [3] and 107 % of control under setting [6].

Regarding `CCNC(C)(C)C(SSSC(c1cccs1)C(C)(C)NCC)c1cccs1` (stereo not drawn), the T/C is 104 % of control (dose: 100.0 mg/kg/injection, schedule: Q01DX001 (ip), vehicle: saline) and 118 % of control (dose: 200.0 mg/kg/injection, schedule: Q01DX001 (ip), vehicle: saline).

In the case of `CCCCNC1(C#N)CCN(Cc2ccccc2)CC1`, the T/C runs as follows: (dose: 6.0 mg/kg/injection, schedule: Q04DX003 (ip), vehicle: Klucel (hydroxypropylcellulose) (HPC)) 104 % of control; (dose: 12.0 mg/kg/injection, schedule: Q04DX003 (ip), vehicle: Klucel (hydroxypropylcellulose) (HPC)) 100 % of control; (dose: 12.5 mg/kg/injection, schedule: Q01DX009 (ip), vehicle: Klucel (hydroxypropylcellulose) (HPC)) 100 % of control; (dose: 25.0 mg/kg/injection, schedule: Q01DX009 (ip), vehicle: Klucel (hydroxypropylcellulose) (HPC)) 91 % of control; under setting [7], 96 % of control and 112 % of control.

On to `CN(C)c1ccc(/C=C/c2ccccn2)cc1`, for which the T/C is, setting by setting: under setting [8], 95 % of control; under setting [5], 95 % of control.

As for `O=C1N(Cl)C(=O)C(c2ccccc2)(c2ccc(F)cc2)N1Cl` (stereo not drawn), the T/C under setting [7] is 87 % of control; the T/C (dose: 50.0 mg/kg/injection, schedule: Q04DX003 (ip), vehicle: Klucel (hydroxypropylcellulose) (HPC)) was 100 % of control; the T/C (dose: 100.0 mg/kg/injection, schedule: Q04DX003 (ip), vehicle: Klucel (hydroxypropylcellulose) (HPC)) was 91 % of control.

As for `NC(=O)NNC(N)=O`, the T/C is 105 % of control (dose: 12.5 mg/kg/injection, schedule: Q04DX003 (ip), vehicle: saline); 100 % of control under setting [1]; 116 % of control (dose: 25.0 mg/kg/injection, schedule: Q04DX003 (ip), vehicle: saline); 100 % of control (dose: 50.0 mg/kg/injection, schedule: Q01DX009 (ip), vehicle: saline); 100 % of control (dose: 50.0 mg/kg/injection, schedule: Q04DX003 (ip), vehicle: saline); 100 % of control (dose: 75.0 mg/kg/injection, schedule: Q04DX003 (ip), vehicle: saline). The T/C reads like this: (dose: 115.0 mg/kg/injection, schedule: Q04DX003 (ip), vehicle: saline) 86 % of control; (dose: 170.0 mg/kg/injection, schedule: Q04DX003 (ip), vehicle: saline) 90 % of control.

For `CC1(C)OC(C)(C)c2c1nnc(-c1cccc([N+](=O)[O-])c1)[n+]2[O-]`, the T/C by setting is: (dose: 50.0 mg/kg/injection, schedule: Q01DX005 (ip), vehicle: saline with Tween-80) 88 % of control; (dose: 100.0 mg/kg/injection, schedule: Q01DX005 (ip), vehicle: saline with Tween-80) 93 % of control; (dose: 200.0 mg/kg/injection, schedule: Q01DX005 (ip), vehicle: saline with Tween-80) 104 % of control.

`O=C(CI)N1c2ccccc2Sc2ccc3ccccc3c21`: the T/C is 91 % of control under setting [2], 96 % of control under setting [3] and 116 % of control under setting [6].

Consider `CCCCC(=O)/C=C/c1ccccc1`, for which the T/C under setting [2] was 102 % of control, the T/C under setting [3] is 109 % of control and the T/C under setting [6] was 120 % of control.

Consider `COc1ccc(N/N=C(\C)C2(O)Cc3c(O)c4c(c(O)c3C(OC3CC(N)C(O)C(C)O3)C2)C(=O)c2c(OC)cccc2C4=O)cc1` (stereo not drawn), for which the T/C (dose: 1.73 mg/kg/injection, schedule: Q04DX003 (ip), vehicle: water) was 123 % of control and the T/C (dose: 4.8 mg/kg/injection, schedule: Q04DX003 (ip), vehicle: water) is 157 % of control.

Consider `NC(=S)n1cccn1`, for which the T/C (dose: 50.0 mg/kg/injection, schedule: Q01DX010 (ip), vehicle: water) is 118 % of control.

`c1ccc(CNCCN(Cc2ccccc2)Cc2ccccc2)cc1`: the T/C (dose: 0.78 mg/kg/injection, schedule: Q01DX009 (ip), vehicle: water) is 105 % of control; the T/C (dose: 1.56 mg/kg/injection, schedule: Q01DX009 (ip), vehicle: water) was 106 % of control; the T/C (dose: 3.12 mg/kg/injection, schedule: Q01DX009 (ip), vehicle: water) is 99 % of control and 101 % of control; the T/C (dose: 6.25 mg/kg/injection, schedule: Q01DX009 (ip), vehicle: water) is 93 % of control and 110 % of control; the T/C (dose: 12.5 mg/kg/injection, schedule: Q01DX009 (ip), vehicle: water) was 110 % of control and 115 % of control; the T/C (dose: 25.0 mg/kg/injection, schedule: Q01DX009 (ip), vehicle: water) is 101 % of control.

With `Cc1ccc(C(O)c2c(C)cc(C)cc2C)c(C)c1` (stereo not drawn), the T/C runs as follows: (dose: 100.0 mg/kg/injection, schedule: Q01DX001 (ip), vehicle: saline with Tween-80) 100 % of control; (dose: 200.0 mg/kg/injection, schedule: Q01DX001 (ip), vehicle: saline with Tween-80) 100 % of control; (dose: 400.0 mg/kg/injection, schedule: Q01DX001 (ip), vehicle: saline with Tween-80) 100 % of control.

Consider `CC[CH2][Pb]([CH2]CC)([CH2]CC)[O]C(=O)C(Cl)(Cl)Cl`, for which the T/C (dose: 3.12 mg/kg/injection, schedule: Q01DX009 (ip), vehicle: saline with Tween-80) was 122 % of control; the T/C (dose: 6.25 mg/kg/injection, schedule: Q01DX009 (ip), vehicle: saline with Tween-80) was 121 % of control; the T/C under setting [8] was 108 % of control.

Regarding `O=S(=O)(O)O.[W]`, the T/C is 96 % of control (dose: 0.75 mg/kg/injection, schedule: Q01DX009 (ip), vehicle: saline) and 90 % of control (dose: 3.0 mg/kg/injection, schedule: Q01DX009 (ip), vehicle: saline).

In the case of `O=[N+]([O-])c1ccc(C(O)Nc2nccs2)o1` (stereo not drawn), the T/C is 95 % of control (dose: 25.0 mg/kg/injection, schedule: Q04DX003 (ip), vehicle: saline with Tween-80); 100 % of control and 104 % of control (dose: 50.0 mg/kg/injection, schedule: Q04DX003 (ip), vehicle: saline with Tween-80); 100 % of control under setting [4].

With `CN=C(NCCCOC)c1ccc(NC(=O)Nc2ccc(NC(=O)Nc3ccc(C(=NC)NCCCOC)cc3)cc2)cc1`, the T/C reads like this: (dose: 6.25 mg/kg/injection, schedule: Q01DX005 (ip), vehicle: Klucel (hydroxypropylcellulose) (HPC)) 104 % of control; (dose: 12.5 mg/kg/injection, schedule: Q01DX005 (ip), vehicle: Klucel (hydroxypropylcellulose) (HPC)) 108 % of control; (dose: 25.0 mg/kg/injection, schedule: Q01DX005 (ip), vehicle: Klucel (hydroxypropylcellulose) (HPC)) 115 % of control; (dose: 50.0 mg/kg/injection, schedule: Q01DX005 (ip), vehicle: Klucel (hydroxypropylcellulose) (HPC)) 121 % of control; (dose: 100.0 mg/kg/injection, schedule: Q01DX005 (ip), vehicle: Klucel (hydroxypropylcellulose) (HPC)) 107 % of control.

For `O=C(O)c1cc[c]([Hg][S]c2ncnc3nc[nH]c23)cc1`, where the note is “dose: 25.0 mg/kg/injection, schedule: Q01DX009 (ip), vehicle: suspension in saline”, the T/C is 119 % of control.
